The NIST ThermoML archive (doi:10.1021/acs.jced.8b00333)
± gives the expanded uncertainty stated by the source.

How the values were obtained:
[1] = Crystal; DTA
[2] = Molar enthalpy of transition or fusion; details: Crystal; DSC

CCOC(=O)[C@H](CCc1ccccc1)N[C@@H](C)C(=O)O [((S)-1-ethoxy-1-oxo-4-phenylbutan-2-yl)-L-alanine]
Normal melting temperature [1]: 153.36 ± 1.1 °C | Molar enthalpy of transition or fusion [2]: 13.9 ± 0.335 kcal/mol
